The values below are quoted from earlier work in patent US20210299068A1, “ANTIMICROBIAL COMPOSITIONS COMPRISING CHLORHEXIDINE” (3M INNOVATIVE PROPERTIES COMPANY, priority 2018, published 2021).

For this data set the following is noted: at neutral pH.

Consider `O=C([O-])CN(CCO)CCN(CC(=O)[O-])CC(=O)[O-].[Na+].[Na+].[Na+]` [HEDTA.Na3, N-(2-Hydroxyethyl)ethylenediaminetriacetic acid trisodium salt], for which the “Formation constant for the complex with calcium” value is 10^6.
